US11142515B2, “Pyrazolyl-ureas as kinase inhibitors” (RESPIVERT LIMITED, priority 2014, dated 2021)

How the values were obtained:
[1] = target: T1, p38 MAPKα isoform (MAPK14) (Homo sapiens, UniProt Q16539); test: p38 MAPKα enzyme inhibition (Z-LYTE FRET); assay type: biochemical; conditions: Table 2B, unit inferred; read-out: p38 MAPKα (Enzyme Profile)
T1 construct: purchased Life Technologies
Procedure, shortened: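 Activity was measured indirectly as phosphorylation of a MAPKAP-K2-derived FRET peptide. Enzyme (added at 40 ng/mL) was preincubated 2 h at RT with compound (added solutions 40–0.0012 μg/mL).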

[2] = target: T2, p38MAPKγ (MAPK12) (Homo sapiens, UniProt P53778); test: p38 MAPKγ enzyme inhibition (Z-LYTE FRET); assay type: biochemical; conditions: Table 2B, unit inferred; read-out: p38 MAPKγ (Enzyme Profile)
T2 construct: purchased Life Technologies
T2 sequence (P53778 1-367): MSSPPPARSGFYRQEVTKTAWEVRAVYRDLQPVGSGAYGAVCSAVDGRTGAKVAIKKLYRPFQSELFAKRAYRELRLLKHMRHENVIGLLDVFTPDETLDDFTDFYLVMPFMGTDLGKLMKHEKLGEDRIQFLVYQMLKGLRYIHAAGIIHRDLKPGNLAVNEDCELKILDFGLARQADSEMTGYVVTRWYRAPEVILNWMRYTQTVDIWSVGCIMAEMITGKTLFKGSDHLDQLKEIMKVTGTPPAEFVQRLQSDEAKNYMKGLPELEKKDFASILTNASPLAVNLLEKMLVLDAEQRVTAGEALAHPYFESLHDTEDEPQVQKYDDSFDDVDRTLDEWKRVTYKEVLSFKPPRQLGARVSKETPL
Procedure, shortened: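 Enzyme (added at 800 ng/mL) was preincubated 2 h at RT with compound (solutions of 40 to 0.0012 μg/mL), then FRET peptide (8 μM) and ATP (400 μM), both as added, were reacted 1 h at RT. Protease development followed for 1 h; phosphorylation was read as the coumarin/fluorescein emission ratio.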

T1 sequence (Q16539 whole entry, canonical isoform): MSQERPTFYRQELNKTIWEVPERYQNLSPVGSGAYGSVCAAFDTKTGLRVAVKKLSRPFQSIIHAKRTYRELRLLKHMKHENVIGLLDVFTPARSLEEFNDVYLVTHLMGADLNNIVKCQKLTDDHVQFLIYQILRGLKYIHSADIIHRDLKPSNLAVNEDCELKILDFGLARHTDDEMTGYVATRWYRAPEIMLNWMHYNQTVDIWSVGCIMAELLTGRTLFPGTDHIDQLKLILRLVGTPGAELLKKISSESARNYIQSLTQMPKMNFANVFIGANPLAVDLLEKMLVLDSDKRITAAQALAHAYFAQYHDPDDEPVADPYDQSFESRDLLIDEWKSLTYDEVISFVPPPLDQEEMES

| IC50 [1] [nM] | IC50 [2] [nM] | Compound |
| --- | --- | --- |
| 44 | 1140 | Cc1ccc(-n2nc(C(C)(C)C)cc2NC(=O)Nc2ccc(OCc3ccnc(Nc4cnc(C)c(C)n4)c3)c3ccccc23)cc1F [Example 182, 1-(3-(tert-butyl)-1-(3-fluoro-4-methylphenyl)-1H-pyrazol-5-yl)-3-(4-((2-((5,6-dimethylpyrazin-2-yl)amino)pyridin-4-yl)methoxy)naphthalen-1-yl) urea] |
| 21 | 495 | COCCNC(=O)c1cnc(Nc2cc(COc3ccc(NC(=O)Nc4cc(C(C)(C)C)nn4-c4ccc(C)c(C)c4)c4ccccc34)ccn2)cn1 [Example 156] |
| 28 | > 14100 | Cc1cc(C)cc(-n2nc(C(C)(C)C)cc2NC(=O)Nc2ccc(OCc3ccnc(Nc4cnc(C(=O)N5CCCC5)cn4)c3)c3ccccc23)c1 [Example 218, 1-(3-(tert-butyl)-1-(3,5-dimethylphenyl)-1H-pyrazol-5-yl)-3-(4-((2-((5-(pyrrolidine-1-carbonyl)pyrazin-2-yl)amino)pyridin-4-yl)methoxy)naphthalen-1-yl)urea] |
| < 0.4 | 138 | COCc1cccc(-n2nc(C(C)(C)C)cc2NC(=O)Nc2ccc(OCc3ccnc(Nc4cnc(C(=O)N5CCN(C)CC5)cn4)c3)c3ccccc23)c1 [Example 269, 1-(3-(tert-butyl)-1-(3-(methoxymethyl)phenyl)-1H-pyrazol-5-yl)-3-(4-((2-((5-(4-methylpiperazine-1-carbonyl)pyrazin-2-yl)amino)pyridin-4-yl)methoxy)naphthalen-1-yl)urea] |
| 13 | 1240 | CO[C@H]1CCN(C(=O)c2cnc(Nc3cc(COc4ccc(NC(=O)Nc5cc(C(C)(C)C)nn5-c5cccc(C)c5)c5ccccc45)ccn3)cn2)C1 [Example 200, (S)-1-(3-(tert-butyl)-1-(m-tolyl)-1H-pyrazol-5-yl)-3-(4-((2-((5-(3-methoxy-pyrrolidine-1-carbonyl)pyrazin-2-yl)amino)pyridin-4-yl)methoxy)naphthalen-1-yl)urea] |
| 37 | 3200 | COc1cncc(Nc2cc(COc3ccc(NC(=O)Nc4cc(C(C)(C)C)nn4-c4csc(C)c4)c4ccccc34)ccn2)n1 [Example 113, 1-(3-(tert-butyl)-1-(5-methylthiophen-3-yl)-1H-pyrazol-5-yl)-3-(4-((2-((6-methoxypyrazin-2-yl)amino)pyridin-4-yl)methoxy)naphthalen-1-yl) urea] |
| 12 | 128 | CCc1cccc(-n2nc(C(C)(C)C)cc2NC(=O)Nc2ccc(OCc3ccnc(Nc4cnccn4)c3)c3ccccc23)c1 [Example 165, 1-(3-(tert-butyl)-1-(3-ethyl-phenyl)-1H-pyrazol-5-yl)-3-(4-((2-(pyrazin-2-ylamino)pyridin-4-yl)methoxy)naphthalen-1-yl) urea] |
| 30 | 2390 | COc1ccc(-n2nc(C(C)(C)C)cc2NC(=O)Nc2ccc(OCc3ccnc(Nc4cnc(C)c(C)n4)c3)c3ccccc23)cn1 [Example 207, 1-(3-(tert-butyl)-1-(6-methoxypyridin-3-yl)-1H-pyrazol-5-yl)-3-(4-((2-((5,6-dimethylpyrazin-2-yl)amino)pyridin-4-yl)methoxy)naphthalen-1-yl)urea] |
| 5.7 | 78 | COc1cccc(-n2nc(C(C)(C)C)cc2NC(=O)Nc2ccc(OCc3ccnc(Nc4cnccn4)c3)c3ccccc23)c1 [Example 142, 1-(3-(tert-butyl)-1-(3-methoxyphenyl)-1H-pyrazol-5-yl)-3-(4-((2-(pyrazin-2-ylamino)pyridin-4-yl)methoxy)naphthalen-1-yl) urea] |
| 6.2 | 52 | COCc1cccc(-n2nc(C(C)(C)C)cc2NC(=O)Nc2ccc(OCc3ccnc(Nc4cnccn4)c3)c3ccccc23)c1 [Example 166, 1-(3-(tert-butyl)-1-(3-(methoxymethyl)phenyl)-1H-pyrazol-5-yl)-3-(4-((2-(pyrazin-2-ylamino)pyridin-4-yl)methoxy)naphthalen-1-yl)urea] |
| 43 | 260 | Cc1ccc(-n2nc(C(C)(C)C)cc2NC(=O)Nc2ccc(OCc3ccnc(Nc4cncc(C5CC5)n4)c3)c3ccccc23)cc1C [Example 145, 1-(3-(tert-butyl)-1-(3,4-dimethylphenyl)-1H-pyrazol-5-yl)-3-(4-((2-((6-cyclopropylpyrazin-2-yl)amino)pyridin-4-yl)methoxy)naphthalen-1-yl)urea] |
| < 1.59 | 4560 | COc1cnc(Nc2cc(COc3ccc(NC(=O)Nc4cc(C(C)(C)C)nn4-c4ccc(C)cc4)c4ccccc34)ccn2)cn1 [Example 105, 1-(3-(tert-butyl)-1-(p-tolyl)-1H-pyrazol-5-yl)-3-(4-((2-((5-methoxypyrazin-2-yl)amino)pyridin-4-yl)methoxy)naphthalen-1-yl) urea] |
| 18 | 438 | CCc1cncc(Nc2cc(COc3ccc(NC(=O)Nc4cc(C(C)(C)C)nn4-c4cccc(C)c4)c4ccccc34)ccn2)n1 [Example 141, 1-(3-(tert-butyl)-1-(m-tolyl)-1H-pyrazol-5-yl)-3-(4-((2-((6-ethylpyrazin-2-yl)amino)pyridin-4-yl)methoxy)naphthalen-1-yl)urea] |
| 3.8 | 35 | Cc1ccc(-n2nc(C(C)(C)C)cc2NC(=O)Nc2ccc(OCc3ccnc(Nc4cnc(C(=O)NCCCO)cn4)c3)c3ccccc23)cc1 [Example 134, 5-((4-(((4-(3-(3-(tert-butyl)-1-(p-tolyl)-1H-pyrazol-5-yl)ureido)naphthalen-1-yl)oxy)methyl)pyridin-2-yl)amino)-N-(3-hydroxy-propyl)pyrazine-2-carboxamide] |
| 21 | 218 | Cc1ccc(-n2nc(C(C)(C)C)cc2NC(=O)Nc2ccc(OCc3ccnc(Nc4cnc(CN5CCOCC5)cn4)c3)c3ccccc23)cc1 [Example 263, 1-(3-(tert-butyl)-1-(p-tolyl)-1H-pyrazol-5-yl)-3-(4-((2-((5-(morpholinomethyl)pyrazin-2-yl)amino)pyridin-4-yl)methoxy)naphthalen-1-yl)urea] |
| 288 | > 13700 | Cc1ccc(-n2nc(C(C)(C)C)cc2NC(=O)Nc2ccc(OCc3ccnc(Nc4cnc(C(=O)NCCOC(C)C)cn4)c3)c3ccccc23)cc1 [Example 124, 5-((4-(((4-(3-(3-(tert-butyl)-1-(p-tolyl)-1H-pyrazol-5-yl)ureido)naphthalen-1-yl)oxy)methyl)pyridin-2-yl)amino)-N-(2-isopropoxy-ethyl)pyrazine-2-carboxamide] |
| 3.6 | 46 | Cc1ccc(-n2nc(C(C)(C)C)cc2NC(=O)Nc2ccc(OCc3ccnc(Nc4cnc(C(=O)N5CCNC(=O)C5)cn4)c3)c3ccccc23)cc1 [Example 249, 1-(3-(tert-butyl)-1-(p-tolyl)-1H-pyrazol-5-yl)-3-(4-((2-((5-(3-oxopiperazine-1-carbonyl)pyrazin-2-yl)amino)pyridin-4-yl)methoxy)naphthalen-1-yl)urea] |
| 17 | 15500 | COc1ccc(-n2nc(C(C)(C)C)cc2NC(=O)Nc2ccc(OCc3ccnc(Nc4cncc(OC)n4)c3)c3ccccc23)cc1 [Example 108, 1-(3-(tert-butyl)-1-(4-methoxyphenyl)-1H-pyrazol-5-yl)-3-(4-((2-((6-methoxypyrazin-2-yl)amino)pyridin-4-yl)methoxy)naphthalen-1-yl)urea] |
| 15 | 151 | Cc1ccc(-n2nc(C(C)(C)C)cc2NC(=O)Nc2ccc(OCc3ccnc(Nc4cncc(N5CCCC5)n4)c3)c3ccccc23)cc1 [Example 55, 1-(3-(tert-Butyl)-1-(p-tolyl)-1H-pyrazol-5-yl)-3-(4-((2-((6-(pyrrolidin-1-yl)pyrazin-2-yl)amino)pyridin-4-yl)methoxy)naphthalen-1-yl)urea] |
| 2.4 | 77 | Cc1ccc(-n2nc(C(C)(C)C)cc2NC(=O)Nc2ccc(OCc3ccnc(Nc4cnc(C(=O)N5CC[C@H](N(C)C)C5)cn4)c3)c3ccccc23)cc1 [Example 258, (S)-1-(3-(tert-butyl)-1-(p-tolyl)-1H-pyrazol-5-yl)-3-(4-((2-((5-(3-(dimethyl-amino)pyrrolidine-1-carbonyl)pyrazin-2-yl)amino)pyridin-4-yl)methoxy)naphthalen-1-yl)urea] |
| 17 | 424 | COCc1ccc(-n2nc(C(C)(C)C)cc2NC(=O)Nc2ccc(OCc3ccnc(Nc4cnc(C(=O)N5CCCC5)cn4)c3)c3ccccc23)cc1 [Example 217, 1-(3-(tert-butyl)-1-(4-(methoxymethyl)phenyl)-1H-pyrazol-5-yl)-3-(4-((2-((5-(pyrrolidine-1-carbonyl)pyrazin-2-yl)amino)pyridin-4-yl)methoxy)naphthalen-1-yl)urea] |
| < 0.39 | 47 | Cc1ccc(-n2nc(C(C)(C)C)cc2NC(=O)Nc2ccc(OCc3ccnc(Nc4cnc(C(=O)NCCN5CCN(C)CC5)cn4)c3)c3ccccc23)cc1 [Example 260, 5-((4-(((4-(3-(3-(tert-butyl)-1-(p-tolyl)-1H-pyrazol-5-yl)ureido)naphthalen-1-yl)oxy)methyl)pyridin-2-yl)amino)-N-(2-(4-methylpiperazin-1-yl)ethyl)pyrazine-2-carboxamide] |
